Measurements taken from patent publication US9296720B2, “Carboxamide-substituted heteroaryl-pyrazoles and the use thereof” (AiCuris GmbH & Co. KG, priority 2011, dated 2016).
Read-outs that look alike come from different tables or passages of the source.

Columns and labels:
Assay type in all cases: cell-based
HIV-1LAI Wild Type = assay: AlamarBlue viability assay, HIV-1LAI-infected MT4 cells; conditions: 10% FCS
Procedure, shortened: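 MT4 cells infected with HIV-1LAI (MOI 0.01, supernatant infection) cultured 5 days at 37 °C with compounds in RPMI with 2% or 10% FCS, 1% DMSO final. AlamarBlue fluorescence after 3 h; EC50 as 50% protection relative to uninfected cells, CC50 from high-concentration cytotoxicity.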

HIV-1NL4-3 K103N-Y181C = assay: Luminescence reduction assay, MT4 cells infected with HIV-1NL4-3 luciferase reporter virus, RT mutant K103N-Y181C
Procedure, shortened: (§1)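 MT4 cells pellet-infected 2 h at 37° C with HIV-1NL4-3 reporter virus (lu164 replacing nef; wild type or site-directed RT mutants), washed, then incubated with compound dilutions (1% DMSO, 2% or 10% FCS) for 5 days. Secreted luciferase read with coelenterazine buffer; EC50 = concentration halving RLU versus untreated infected cells.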

HIV-1NL4-3 Wild Type = assay: Luminescence reduction assay, MT4 cells infected with HIV-1NL4-3 luciferase reporter virus, wild type; conditions: 2% FCS
Procedure, shortened: as §1

[1] = Human immunodeficiency virus 1, MT4, MT4 cells
[2] = Human immunodeficiency virus 1, MT4, read-out: EC50 (μM) MT4 Cells HIV-1NL4-3 K103N-Y181C 2% FCS, MT4 cells, HIV-1NL4-3 K103N-Y181C, 2% FCS
[3] = read-out: EC50 (μM) MT4 Cells HIV-1NL4-3 K103N-Y181C 2% FCS, MT4 cells, HIV-1NL4-3 K103N-Y181C, 2% FCS

## O=C(c1cc(-c2cc(F)cc(OC(F)(F)F)c2)n(-c2ccnc(Cl)c2)n1)N1CC[S+]([O-])C1 (stereo not drawn) [Example 64, {1-(2-Chloropyridin-4-yl)-5-[3-fluoro-5-(trifluoromethoxy)phenyl]-1H-pyrazol-3-yl}(1-oxido-1,3-thiazolidin-3-yl)methanone]
HIV-1LAI Wild Type; [1]
  EC50: 1.55 µM
HIV-1NL4-3 K103N-Y181C; [2]
  EC50: 0.771 µM
HIV-1NL4-3 Wild Type; [1]
  EC50: 0.103 µM

## O=C(c1cc(-c2cc(Br)cc(OC(F)(F)F)c2)n(-c2ccc[n+]([O-])c2)n1)N1CCS(=O)(=O)C1 [Example 33, {5-[3-Bromo-5-(trifluoromethoxy)phenyl]-1-(1-oxidopyridin-3-yl)-1H-pyrazol-3-yl}(1,1-dioxido-1,3-thiazolidin-3-yl)methanone]
HIV-1LAI Wild Type; [1]
  EC50: 1.02 µM
HIV-1NL4-3 K103N-Y181C; [2]
  EC50: 0.299 µM
HIV-1NL4-3 Wild Type; [1]
  EC50: 0.069 µM

## O=C(c1cc(-c2cc(F)cc(Cl)c2)n(-c2cccnc2)n1)N1CCSC1 [Example 5, [5-(3-Chloro-5-fluorophenyl)-1-(pyridin-3-yl)-1H-pyrazol-3-yl](1,3-thiazolidin-3-yl)methanone]
HIV-1LAI Wild Type; [1]
  EC50: 0.533 µM
HIV-1NL4-3 K103N-Y181C; [2]
  EC50: 1.32 µM
HIV-1NL4-3 Wild Type; [1]
  EC50: 0.023 µM

## O=C1CN(C(=O)c2cc(-c3cc(F)cc(Cl)c3)n(-c3ccnc(C(F)(F)F)c3)n2)CCN1 [Example 17]
HIV-1LAI Wild Type; [1]
  EC50: 3.67 µM
HIV-1NL4-3 K103N-Y181C; [2]
  EC50: > 3.3 µM
HIV-1NL4-3 Wild Type; [1]
  EC50: 0.248 µM

## Cc1cc(-n2nc(C(=O)N3CCNC(=O)C3)cc2-c2cc(F)cc(Cl)c2)ccn1 [Example 22, 4-{[5-(3-Chloro-5-fluorophenyl)-1-(2-methylpyridin-4-yl)-1H-pyrazol-3-yl]carbonyl}piperazin-2-one]
HIV-1LAI Wild Type; [1]
  EC50: 3.18 µM
HIV-1NL4-3 K103N-Y181C; [2]
  EC50: > 3.3 µM
HIV-1NL4-3 Wild Type; [1]
  EC50: 0.375 µM

## O=C1CN(C(=O)c2cc(-c3ccnc(Cl)c3)n(-c3ccc(F)c(Cl)c3)n2)CCN1 [Example 113, 4-{[1-(3-Chloro-4-fluorophenyl)-5-(2-chloropyridin-4-yl)-1H-pyrazol-3-yl]carbonyl}piperazin-2-one]
HIV-1LAI Wild Type; [1]
  EC50: 0.233 µM
HIV-1NL4-3 K103N-Y181C; [2]
  EC50: 0.298 µM
HIV-1NL4-3 Wild Type; [1]
  EC50: 0.025 µM

## O=C1CN(C(=O)c2cc(-c3cc(Br)cc(OC(F)(F)F)c3)n(-c3ccnc(C(F)(F)F)c3)n2)CN1 [Example 50, 1-({5-[3-Bromo-5-(trifluoromethoxy)phenyl]-1-[2-(trifluoromethyl)pyridin-4-yl]-1H-pyrazol-3-yl}carbonyl)imidazolidin-4-one]
HIV-1LAI Wild Type; [1]
  EC50: 1.86 µM
HIV-1NL4-3 K103N-Y181C; [2]
  EC50: 0.167 µM
HIV-1NL4-3 Wild Type; [1]
  EC50: 0.102 µM

## Cc1ccc(-n2nc(C(=O)N3CNC(=O)C3)cc2-c2cc(Br)cc(OC(F)(F)F)c2)cn1 [Example 46, 1-({5-[3-Bromo-5-(trifluoromethoxy)phenyl]-1-(6-methylpyridin-3-yl)-1H-pyrazol-3-yl}carbonyl)imidazolidin-4-one]
HIV-1LAI Wild Type; [1]
  EC50: 0.097 µM
HIV-1NL4-3 K103N-Y181C; [2]
  EC50: 0.007 µM
HIV-1NL4-3 Wild Type; [1]
  EC50: 0.007 µM

## O=C1CN(C(=O)c2cc(-c3cc(F)cc(Cl)c3)n(-c3ccccn3)n2)CN1 [Example 1, 1-{[5-(3-Chloro-5-fluorophenyl)-1-(pyridin-2-yl)-1H-pyrazol-3-yl]carbonyl}imidazolidin-4-one]
HIV-1LAI Wild Type; [1]
  EC50: > 3.3 µM
HIV-1NL4-3 K103N-Y181C; [2]
  EC50: > 3.3 µM
HIV-1NL4-3 Wild Type; [1]
  EC50: 0.345 µM

## O=C(c1cc(-c2cc(F)cc(OCC(F)(F)F)c2)n(-c2cccnc2)n1)N1CC[S+]([O-])C1 (racemic) [Example 73, {5-[3-Fluoro-5-(2,2,2-trifluoroethoxy)phenyl]-1-(pyridin-3-yl)-1H-pyrazol-3-yl}(1-oxido-1,3-thiazolidin-3-yl)methanone]
HIV-1LAI Wild Type; [1]
  EC50: 0.243 µM
HIV-1NL4-3 K103N-Y181C; [2]
  EC50: 0.951 µM
HIV-1NL4-3 Wild Type; [1]
  EC50: 0.018 µM

## N#Cc1cc(OC(F)(F)F)cc(-c2cc(C(=O)N3CCNC(=O)C3)nn2-c2cccnc2)c1 [Example 89, 3-{3-[(3-Oxopiperazin-1-yl)carbonyl]-1-(pyridin-3-yl)-1H-pyrazol-5-yl}-5-(trifluoromethoxy)benzonitrile]
HIV-1LAI Wild Type; [1]
  EC50: 0.129 µM
HIV-1NL4-3 K103N-Y181C; [2]
  EC50: 0.523 µM
HIV-1NL4-3 Wild Type; [1]
  EC50: 0.258 µM

## O=C1CN(C(=O)c2cc(-c3cc(F)cc(Br)c3)n(-c3ccnc(Cl)c3)n2)CCN1 [Example 93, 4-{[5-(3-Bromo-5-fluorophenyl)-1-(2-chloropyridin-4-yl)-1H-pyrazol-3-yl]carbonyl}piperazin-2-one]
HIV-1LAI Wild Type; [1]
  EC50: 0.137 µM
HIV-1NL4-3 K103N-Y181C; [2]
  EC50: 0.256 µM
HIV-1NL4-3 Wild Type; [1]
  EC50: 0.016 µM

## O=C1CN(C(=O)c2cc(-c3cc(F)cc(Cl)c3)n(-c3ccnc(Cl)c3)n2)CN1 [Example 14, 1-{[5-(3-Chloro-5-fluorophenyl)-1-(2-chloropyridin-4-yl)-1H-pyrazol-3-yl]carbonyl}imidazolidin-4-one]
HIV-1LAI Wild Type; [1]
  EC50: 0.096 µM
HIV-1NL4-3 K103N-Y181C; [2]
  EC50: 0.067 µM
HIV-1NL4-3 Wild Type; [1]
  EC50: 0.005 µM

## O=C1CN(C(=O)c2cc(-c3cc(Cl)cc(OC(F)F)c3)n(-c3cccnc3)n2)CN1 [Example 81, 1-({5-[3-Chloro-5-(difluoromethoxy)phenyl]-1-(pyridin-3-yl)-1H-pyrazol-3-yl}carbonyl)imidazolidin-4-one]
HIV-1LAI Wild Type; [1]
  EC50: 0.015 µM
HIV-1NL4-3 K103N-Y181C; [2]
  EC50: 0.008 µM
HIV-1NL4-3 Wild Type; [1]
  EC50: 0.003 µM

## COc1cc(Br)cc(-c2cc(C(=O)N3CNC(=O)C3)nn2-c2cccnc2)c1 [Example 94, 1-{[5-(3-Bromo-5-methoxyphenyl)-1-(pyridin-3-yl)-1H-pyrazol-3-yl]carbonyl}imidazolidin-4-one]
HIV-1LAI Wild Type; [1]
  EC50: 0.006 µM
HIV-1NL4-3 K103N-Y181C; [2]
  EC50: 0.012 µM
HIV-1NL4-3 Wild Type; [1]
  EC50: < 0.002 µM

## O=C(c1cc(-c2cc(Br)cc(OC(F)(F)F)c2)n(-c2ccnc(C(F)(F)F)c2)n1)N1CC[S+]([O-])C1 (stereo not drawn) [Example 51, {5-[3-Bromo-5-(trifluoromethoxy)phenyl]-1-[2-(trifluoromethyl)pyridin-4-yl]-1H-pyrazol-3-yl}(1-oxido-1,3-thiazolidin-3-yl)methanone]
HIV-1LAI Wild Type; [1]
  EC50: 1.93 µM
HIV-1NL4-3 K103N-Y181C; [2]
  EC50: 1.05 µM
HIV-1NL4-3 Wild Type; [1]
  EC50: 0.249 µM

## O=C(c1cc(-c2cc(Cl)cc(OC(F)(F)F)c2)n(-c2cccnc2)n1)N1CC[S+]([O-])C1 (racemic) [Example 78, {5-[3-Chloro-5-(trifluoromethoxy)phenyl]-1-(pyridin-3-yl)-1H-pyrazol-3-yl}(1-oxido-1,3-thiazolidin-3-yl)methanone]
HIV-1LAI Wild Type; [1]
  EC50: 0.367 µM
HIV-1NL4-3 K103N-Y181C; [2]
  EC50: 0.277 µM
HIV-1NL4-3 Wild Type; [1]
  EC50: 0.078 µM

## O=C1CN(C(=O)c2cc(-c3cncc(Cl)c3)n(-c3ccc(F)c(Cl)c3)n2)CN1 [Example 100, 1-{[1-(3-Chloro-4-fluorophenyl)-5-(5-chloropyridin-3-yl)-1H-pyrazol-3-yl]carbonyl}imidazolidin-4-one]
HIV-1LAI Wild Type; [1]
  EC50: 0.01 µM
HIV-1NL4-3 K103N-Y181C; [2]
  EC50: 0.009 µM
HIV-1NL4-3 Wild Type; [1]
  EC50: 0.005 µM

## O=C(c1cc(-c2cc(F)cc(OC(F)(F)F)c2)n(-c2ccnc(Cl)c2)n1)N1CCS(=O)(=O)C1 [Example 65, {1-(2-Chloropyridin-4-yl)-5-[3-fluoro-5-(trifluoromethoxy)phenyl]-1H-pyrazol-3-yl}(1,1-dioxido-1,3-thiazolidin-3-yl)methanone]
HIV-1LAI Wild Type; [1]
  EC50: 0.491 µM
HIV-1NL4-3 K103N-Y181C; [2]
  EC50: 0.291 µM
HIV-1NL4-3 Wild Type; [1]
  EC50: 0.026 µM

## Cc1cc(-n2nc(C(=O)N3CCSC3)cc2-c2cc(F)cc(Cl)c2)ccn1 [Example 23, [5-(3-Chloro-5-fluorophenyl)-1-(2-methylpyridin-4-yl)-1H-pyrazol-3-yl](1,3-thiazolidin-3-yl)methanone]
HIV-1LAI Wild Type; [1]
  EC50: > 3.3 µM
HIV-1NL4-3 K103N-Y181C; [2]
  EC50: > 3.3 µM
HIV-1NL4-3 Wild Type; [1]
  EC50: 0.439 µM

## O=C(c1cc(-c2cc(F)cc(Cl)c2)n(-c2cccnc2)n1)N1CC[S+]([O-])C1 (racemic) [Example 6, [5-(3-Chloro-5-fluorophenyl)-1-(pyridin-3-yl)-1H-pyrazol-3-yl](1-oxido-1,3-thiazolidin-3-yl)methanone]
HIV-1LAI Wild Type; MT4 cells
  EC50: 0.201 µM
HIV-1NL4-3 K103N-Y181C; [3]
  EC50: 1.36 µM
HIV-1NL4-3 Wild Type; MT4 cells
  EC50: 0.054 µM

## O=C(c1cc(-c2cc(F)cc(OCC(F)(F)F)c2)n(-c2cccnc2)n1)N1CCSC1 [Example 72, {5-[3-Fluoro-5-(2,2,2-trifluoroethoxy)phenyl]-1-(pyridin-3-yl)-1H-pyrazol-3-yl}(1,3-thiazolidin-3-yl)methanone]
HIV-1LAI Wild Type; [1]
  EC50: 0.585 µM
HIV-1NL4-3 K103N-Y181C; [2]
  EC50: > 3.3 µM
HIV-1NL4-3 Wild Type; [1]
  EC50: 0.038 µM

## COc1cc(OC(F)(F)F)cc(-c2cc(C(=O)N3CCNC(=O)C3)nn2-c2ccnc(Cl)c2)c1 [Example 87, 4-({1-(2-Chloropyridin-4-yl)-5-[3-methoxy-5-(trifluoromethoxy)phenyl]-1H-pyrazol-3-yl}carbonyl)piperazin-2-one]
HIV-1LAI Wild Type; [1]
  EC50: 0.618 µM
HIV-1NL4-3 K103N-Y181C; [2]
  EC50: 0.068 µM
HIV-1NL4-3 Wild Type; [1]
  EC50: 0.11 µM

## O=C(c1cc(-c2cc(F)cc(OC(F)(F)F)c2)n(-c2cccnc2)n1)N1CC[S+]([O-])C1 (racemic) [Example 60, {5-[3-Fluoro-5-(trifluoromethoxy)phenyl]-1-(pyridin-3-yl)-1H-pyrazol-3-yl}(1-oxido-1,3-thiazolidin-3-yl)methanone]
HIV-1LAI Wild Type; MT4 cells
  EC50: 0.997 µM
HIV-1NL4-3 K103N-Y181C; [3]
  EC50: 0.621 µM
HIV-1NL4-3 Wild Type; MT4 cells
  EC50: 0.077 µM

## O=C(c1cc(-c2cc(F)cc(OCC(F)(F)F)c2)n(-c2ccc[n+]([O-])c2)n1)N1CCS(=O)(=O)C1 [Example 75, (1,1-Dioxido-1,3-thiazolidin-3-yl) {5-[3-fluoro-5-(2,2,2-trifluoroethoxy)phenyl]-1-(1-oxidopyridin-3-yl)-1H-pyrazol-3-yl}methanone]
HIV-1LAI Wild Type; [1]
  EC50: > 3.3 µM
HIV-1NL4-3 K103N-Y181C; [2]
  EC50: > 3.3 µM
HIV-1NL4-3 Wild Type; [1]
  EC50: 0.272 µM

## O=C1CN(C(=O)c2cc(-c3cc(F)cc(OC(F)F)c3)n(-c3ccnc(Cl)c3)n2)CCN1 [Example 69, 4-({1-(2-Chloropyridin-4-yl)-5-[3-(difluoromethoxy)-5-fluorophenyl]-1H-pyrazol-3-yl}carbonyl)piperazin-2-one]
HIV-1LAI Wild Type; [1]
  EC50: 1.98 µM
HIV-1NL4-3 K103N-Y181C; [2]
  EC50: 1.14 µM
HIV-1NL4-3 Wild Type; [1]
  EC50: 0.32 µM
